{
  "source": "patent US9910031B2",
  "about": "“Compositions and methods for modulating c-Rel-dependent cytokine production” (Synta Pharmaceuticals Corporation, priority 2003, dated 2018)",
  "key": {"c-Rel": {"system": "c-Rel", "assay": "ELISA based transcriptional factor-DNA binding activity assay, THP-1 nuclear extracts, c-Rel", "type": "cell-based, human", "details": "IFN-γ/LPS, 500 nm, 3 hrs", "procedure": "Nuclear extracts were prepared from IFN-γ-primed THP-1 cells that had been treated with or without SAC and incubated in the presence or absence of 1 μM Compound 1 or 10 mM ASA. Isolation of nuclear extracts was accomplished by first suspending THP-1 cells in 20 volumes of buffer A containing 10 mM KCl, 10 mM HEPES (pH 7.9), 1 mM MgCl2, 1 mM dithiothreitol (DTT), 0.1% Nonidet p40 (NP-40), and 0.5 mM phenylmethylsulfonyl fluoride (PMSF) and then homogenizing and centrifuging at 10,000 rpm at 4° C. for 5 min. Nuclear pellets were then suspended in buffer C containing 400 mM NaCl, 20 mM HEPES pH 7.9), 15 mM MgCl2, 0.2 mM EDTA, 1 mM DTT, 25% glycerol, 1 mM PMSF, and 10 μg of leupeptin, 20 μg of pepstatin, and 10 μg of antipain per ml, incubated for 30 min at 4° C., and centrifuge at 14,000 rpm for […]. The supernatants were dialyzed against buffer D containing 100 mM NaCl, 20 mM HEPES (pH 7.9), 20% glycerol, 1 mM PMSF, and 1 mM DTT.\nTo understand the action of Compound 2 in NF-κB binding, several NF-κB family members, p50, c-Rel and p65 were investigated using an ELISA based transcriptional factor-DNA binding activity assay system. […]"}, "p65": {"system": "p65", "assay": "Western blot of nuclear p65 in THP-1 cells", "type": "cell-based, human", "excerpt": "In order to understand this changes, the subcellular localization of NF-κB proteins was investigated using western blot analysis.\nOf the transcription factors that have been analyzed, two factors, ICSBP and c-Rel, seem to be affected by Compound 1/Compound 2 treatment. ICSBP binds indirectly to the Ets-2 site. The primary NFκB trans-activator for IL-12 is the c-Rel/p50 heterodimer. Other dimers (p65/p50 and p50/p50) either lack activity or have inhibitory functions. Thus, c-Rel plays a role in IL-12 transcription as a result of both activation through NFκB and its interaction with ICSBP. […] The membranes were blocked with 5% milk in TBST buffer and then incubated with anti-c-Rel, anti-p65, anti-p50, anti-ICSBP or anti-PU-1 antibody (all the antibodies were purchased from Santa Cruz) at a dilution of 1:500 for 1 h at room temperature or overnight at 4° C. The membranes were washed and incubated with Horseradish Peroxidase-conjugated anti-rabbit IgG or anti-mouse IgG (Amersham, England) at a dilution of 1:2000 at room temperature for 1 h.\nCompound 2 impairs nuclear translocation of c-Rel and p50. We examined the nuclear translocation kinetics of NF-kB family members in LPS stimulated cells treated with Compound 2. THP1 cells were stimulated with LPS in either the presence or absence of 100 nM Compound 2, and the distribution of the NF-κB Rel family members are determined by immunoblotting nuclear (n.p.) extracts collected at 5 min, 15 min, 30 min, 1 h, 3 h and 6 h post-treatment. In response to LPS stimulation, p50 translocated into the nucleus as early as 5 minutes post-stimulation and accumulates as time goes on (FIG. 7, immunoblots and FIG. 8 densitometry). […] The experiment examining p65 nuclear translocation is shown in FIG. 9 (immunoblots) and FIG. 10 (densitometry). In LPS stimulated cells, p65 translocated into the nucleus as early as 5 minutes post-stimulation and accumulated to maximum levels at 15-30 minutes post-stimulation. Treatment of LPS-stimulated cells with Compound 2 had no effect on the kinetics of p65 nuclear entry.\nTHP-1 cells were suspended in 20 volumes of buffer A containing 10 mM KCl, 10 mM HEPES (pH 7.9), 1 mM MgCl2, 1 mM dithiothreitol (DTT), 0.1% Nonidet p40 (NP-40), and 0.5 mM phenylmethylsulfonyl fluoride (PMSF) and homogenized and centrifuged at 10,000 rpm at 4 C for 5 min. Nuclear pellets were then suspended in buffer C containing 400 mM NaCl, 20 mM HEPES 9 pH 7.9), 15 mM MgCl2, 0.2 mM EDTA, 1 mM DTT, 25% glycerol, 1 mM PMSF, and 10 ug of leupeptin, 20 ug of pepstatin, and 10 ug/ml antipain, incubated for 30 min at 4 C, and centrifuged at 14,000 rpm for 20 min. The supernatants were dialyzed against buffer D containing 100 mM NaCl, 20 mM HEPES (pH 7.9), 20% glycerol, 1 mM PMSF, and 1 mM DTT. […]"}, "IκBβ": {"system": "IκBβ", "assay": "Inducible degradation of IκBβ, Western blot and FACS analysis", "type": "cell-based, human", "details": "THP-1 and RAW267.4 cells, IFN-γ/LPS or IFN-γ/SAC, 500 nM, 30 min and 2 hrs", "procedure": "IκB degradation is one of the steps in the signaling pathway of NFκB dependent genes. The activity of Compound 2 in inducible degradation of IκBα □ and IκBβ was investigated in THP-1 cells using Western blot and FACS analysis. […] Similar results were observed from the Compound 2 pre-treatment samples in which Compound 2 was added […] before stimulation."}, "IL-12 p40": {"system": "IL-12 p40", "assay": "IL-12 p40 inhibition after Toxoplasma antigen (STAg) versus IFN-γ/SAC stimulus", "type": "cell-based", "details": "preliminary results", "procedure": "Compound 2 did, in fact, inhibit p70 but not p40 production in human DCs (no inhibition at up to 10 μM Compound 2). […] Therefore, if Compound 2 is acting through c-Rel, we should not observe potent inhibition of IL-12 p40 following STAg stimulation. […] These two results further confirm that the inhibition of IL-12 production by Compound 2 is via the c-Rel pathway."}},
  "data": [
    {"smiles": "Cc1cccc(C=NNc2cc(N3CCOCC3)nc(OCCc3ccccn3)n2)c1", "note": "[Compound 2, N-(3-methyl-benzylidene)-N′-[6-morpholin-4-yl-2-(2-pyridin-2-yl-ethoxy)-pyrimidin-4-yl]-hydrazine]", "values": [
      {"measurement": "binding activity of c-Rel", "setting": "c-Rel", "result": "significantly decreased"},
      {"measurement": "amount of p65 in nuclear", "setting": "p65; 500 nM, 3 hr, relative to untreated cells", "result": "significantly increased"},
      {"measurement": "nuclear p65 protein (FIG. 4)", "setting": "p65; THP1, IFN-γ plus LPS or IFN-γ plus SAC", "result": "increased"},
      {"measurement": "kinetics of p65 nuclear entry", "setting": "p65; THP1, LPS, 100 nM", "result": "no effect"},
      {"measurement": "level of nuclear p65", "setting": "p65; THP1, LPS, 100 nM, 6 hours, relative to untreated cells", "result": "small increase"},
      {"measurement": "amount of IκBβ in the cytoplasm, treated vs untreated", "setting": "IκBβ", "result": "no significant difference"},
      {"measurement": "IC50 of p40 inhibition with STAg induction relative to IFN-γ/SAC stimulus", "setting": "IL-12 p40", "result": "approximately 1000 times"}
    ]}
  ]
}
